In patent US10188629B2, “Prodrug of green tea epigallocatechin-3-gallate (pro-EGCG) for use in the treatment of endometriosis” (The Hong Kong Polytechnic University, priority 2012, dated 2019):

What was measured:
Assay type in all cases: in vivo, mice
[1] = test system: endometriotic lesions (experimental endometriosis); test: Growth of luminescent endometriotic lesions monitored weekly by IVIS bioluminescence imaging
Excerpt: Based on our previous study, an immune-compromised mouse model of experimental endometriosis was created by subcutaneous transplantation of human or mouse tissues to assess the anti-angiogenic effects and mechanisms of green tea catechin (Xu H, et al. Hum Reprod 2009; 24:608-18; Xu H, et al. Fertil Steril 2011; 96:1021-8).
(§1) In this study, endometrial tissues from eight-week-old female CMV-Luc mice (n=15) were acquired for transplantation into nonluminescent NOD-SCID mice (n=32). The mouse endometrium was obtained during the proliferating estrous stage, and biopsies 2 mm in diameter were obtained with a sterile dermal biopsy punch (Miltex, NY). The biopsies were immediately washed in prewarmed, phenol-red-free DMEM/F-12 medium (Sigma) to remove residual blood and mucus, and the samples were maintained in serum-free DMEM/F-12 medium before transplantation (Bruner-Tran K L, et al. J Clin Endocrinol Metab 2009; 94:2489-94). Cultured endometrial biopsies were randomly allocated for transplantation.
(§2) Five mouse endometrial biopsies per treatment group were implanted into a single subcutaneous pocket created is the abdominal wall of the mice along the ventral midline immediately below the umbilicus. All of the surgical procedures were performed under general anesthesia with isoflurane (Baxter, IL), and the mice were monitored until they fully recovered.
Development and angiogenesis of the experimental endometriosis were monitored using various in vivo imaging systems. During the intervention, growth of the endometriotic lesions (n=8 per group) was monitored each week by measuring the bioluminescence of the subcutaneous luciferase-positive implants using a non-invasive IVIS 200 live animal imaging system (Xenogen) as previously described (Song C, et al. Hum Gene Ther, 2011; 22:439-49). A total of 150 mg/kg of luciferin was injected intraperitoneally […] 10 mins prior to imaging. An image from each animal was captured at bin size 4 in triplicate, and the bioluminescence signal intensities were averaged for comparison.

[2] = test system: endometriotic lesions (experimental endometriosis); test: Lesion size, weight and histology at end of intervention; conditions: after 4 weeks i.p. once per day
Excerpt: as §1, §2
At the end of intervention, size of the endometriotic lesions was determined as the longest length and perpendicular width according to a venire caliper and was calculated as 0.52×width^2×length in mm^3. The endometrial implants, together with subcutaneous and muscle layers, were removed from the abdomen wall for detailed histological examination and specific staining analysis.
(§3) Paraffin sections (n=4 per group) were prepared for standard hematoxylin and eosin (H&E) staining, angiogenesis immunostaining and TUNEL staining as previously described (Xu H, et al. Hum Reprod 2009; 24:608-18.). Immunohistochemistry staining of in situ angiogenesis was performed by the immunoperoxidase method using a MACH 3 HRP Polymer Kit (Biocare Medical, Concord), and counterstained using methyl green or blue solution.

[3] = test system: microvessels in the endometriotic lesions; test: Angiogenesis of endometriotic lesions by Cellvizio, microCT and CD31/αSMA immunostaining; conditions: after 4 weeks
Experimental: (§4) At the end of intervention, functional angiogenesis of the endometriotic lesions (n=8 per group) was monitored by measuring the flow of fluorescence dye in the new microvessels developed in the implants using a Cellvizio® LAB LSU-488 system with a ProFlex Microprobe S1500 (Mauna Kea Technologies, Paris) as previously described (Xu H, et al. Fertil Steril 2011; 96:1021-8.). A total of 10 mg/ml of FITC-Dextran was injected intravenously into each mouse prior to imaging. Total vessel length (μm) and area (μm^2) and functional capillary length (μm^−1) and area density were measured using Cellvizio® LAB Vessel Detection software, and averaged from 4 perpendicular regions of the lesions in replicates. At the same time, apoptotic cells in the lesions were captured by Cellvizio-LAB 488 with a ProFlex MiniO/100 microprobe using Cellvizio® LAB I/C Viewer software (Mauna Kea Technologies). A total of 10 μl of 10 μM YO-PRO®-1 iodide in DSMO was injected into the lesion area.
After live animal imaging, structural angiogenesis in the endometriotic lesions (n=4 per group) was further examined by detecting the Microfil in the new microvessels developed in the implants using a VivaCT 40 μCT system (Scanco Medical, Switzerland) as previously described (Sun M H, et al. J Orthop Res. 2012; 30:137-43.). The mice were sacrificed by cervical dislocation and where immediately perfused with 4% paraformaldehyde and Microfil MV-120 Blue. Three-dimensional microvessel architecture was constructed, and absolute and relative Microfil-filled microvessel volumes were determined using the built-in software.
as §3
Antibodies against mouse CD31 and alpha-smooth muscle actin (αSMA) (Abcam Inc., MA) were used to double fluorescence stain the microvessels developed in the endometriotic lesions, and CD34 (Abeam Inc.) was used to stain the microvessels in the ovaries and uterus. The samples without primary antibodies served as negative controls. The total number of positively stained new and old microvessels in the lesions was counted, respectively. The mean microvessel numbers and sizes were calculated from 5 separated sections from each animal within the treatment group and are presented as numbers per lesion and μm^2 per lesion, respectively.

[4] = test system: apoptotic cells in the endometriotic lesions; test: Apoptosis in endometriotic lesions by Cellvizio YO-PRO-1 imaging and TUNEL staining; conditions: after 4 weeks
Experimental: as §4
The total number of apoptotic cells was counted and averaged from the 4 perpendicular regions of the lesions in replicates as described above. Both IVIS and Cellvizio imaging procedures were performed under general anesthesia with isoflurane (Baxter, Ill.), and the mice were observed until fully recovered.
TUNEL labeling for in situ apoptotic cells was performed using an ApopTag Peroxidase In Situ Apoptosis Detection Kit (Temecula, Calif.) according to the manufacturer's instructions. The total numbers of TUNEL-positive stained cells were counted. The mean numbers of apoptotic cells were calculated from 5 separated sections from each animal within the treatment group and are presented as numbers per lesion as above. […] Each section was evaluated by both examiners, who were blinded to the experimental groups and results.

[5] = Oxygen radical absorbance capacity (ORAC) in plasma and lesions
Excerpt: (§5) Pharmacokinetics of EGCG and pro-EGCG in the animals were studied by measuring the corresponding EGCG and pro-EGCG concentrations (EGCG in the EGCG group, pro-EGCG in the pro-EGCG group) in plasma during the intervention and also in lesions at the end of intervention. EGCG and pro-EGCG were quantified by analytical methods as previously described (Lam W H, et al. Bioorg Med Chem. 2004; 510:69-93; Chu K O, et al. J Chromat B 2004; 810:187-95; Chu K O, et al. Anal Chim Acta 2004; 510:69-76). Anti-oxidative and anti-angiogenesis capacities of the samples were also studied by measuring oxygen radical absorbance capacity (ORAC) using a modified phycoerythrin fluorescence decay assay as previously described (Wang C C, et al. Clin Chem 2004; 50:952-4), and vascular endothelial growth factor (VEGF) concentrations were measured using a commercial ELISA kit (Uscn Life Science Inc., TX) according to the manufacturer's manual. Blood samples (n=8 per group) were collected from the tail vein once per week, and plasma was prepared by immediate centrifugation. Implants without subcutaneous and muscle layers (n=4 per group) were removed from the abdominal wall, and the endometriotic lesions were frozen. All of the samples were kept in −80° C. prior to analysis.

[6] = test system: vascular endothelial growth factor (VEGF); test: VEGF concentrations in plasma and lesions by ELISA
Excerpt: as §5

[7] = EGCG, pro-EGCG 50 mg/kg, vitamin E 20 mg/kg

vitamin E
lesion bioluminescence intensity compared with saline group ([1]; i.p. once per day, 4 weeks, EGCG, pro-EGCG 50 mg/kg, vitamin E 20 mg/kg): significantly lower than that of the saline group at the 3rd week | lesion growth (bioluminescence) at the 4th week compared with saline group ([1]; vitamin E 20 mg/kg i.p. once per day, 4th week): returned to normal growth, as in the saline group | lesion size compared to control group [2, 7]: did not significantly decrease | lesion weight compared to control group [2, 7]: did not significantly decrease | development and histology of the endometriotic lesions ([2]; microscopic examination): a large cyst-like endometrial gland structure was formed | functional capillary length, density and area in the lesions compared to saline group ([3]; Cellvizio, FITC-Dextran): but not vitamin E, significantly inhibited | total vessel length in the lesions compared to saline group ([3]; Cellvizio, FITC-Dextran): but not vitamin E, significantly inhibited | CD31-positively and αSMA-positively stained old microvessel numbers compared to saline group ([3]; immunostaining): but not vitamin E, significantly inhibited | vessel volume and density in the lesions compared to saline group ([3]; microCT, Microfil): but not vitamin E, significantly inhibited | total apoptotic cell numbers in the lesions compared to saline group [4]: but not vitamin E significantly increased | ORAC in endometriotic lesions compared to saline group ([5]; lesions after intervention): significantly increased | ORAC in plasma compared to saline group ([5]; plasma during intervention): significantly increased | VEGF concentrations in endometriotic lesions compared to saline group ([6]; lesions after intervention): not significantly different from the saline group | VEGF concentrations in plasma compared to saline group ([6]; plasma during intervention): not significantly different from the saline group
